Measurements as given in US20040157793A1, “Modified nucleosides as antiviral agents” (priority 2002, published 2004).
Like-named read-outs stand apart in the source and are kept apart here.

Key:
[1] = system: HBV (wild-type virus: rtM204) in HepAD38 cells; assay: Suppression of HBV production in HepAD38 cells, viral DNA in supernatant by Q-PCR; type: cell-based; settings: for HepAD38 log10 inhibition at 10 μM: HBV DNA in supernatant; for EC90: read-out: HepAD38 EC90
From the text: The HepAD38 (wild-type virus: rtM204) and HepAD79 (3TC-resistant virus: rtV204) (Stuyver L. J. et al. 2001, Hepatol., 33:751-757) cell lines replicate HBV under conditions that can be regulated with tetracycline (King R. W. et al. 2000, Methods in Molecular Medicine, Vol 24: Antiviral Methods and Protocols, 43-50 (eds: D. Kinchington & R. F. Schinazi), Humana Press Inc, Totowa, N.J.); Ladner, et al. 1997, Antimicrob. Agents Chemother., 41:1715-1720; Ladner S. K., et al. 1998a. Antivir. Chem. Chemother., 9:65-72; Ladner S. K., et al. 1998b. Antimicrob. Agents Chemother., 42:2128-31). In the presence of this drug, the cell supernatant is virtually free of viral DNA, but upon the removal of tetracycline from the culture medium, these cells secrete virus-like particle into the supernatant.
(§1) HepAD38 and HepAD79 cells were seeded at 5×10^4 cells/well in a 96-well plate in seeding medium (DMEM/F12+10% FBS, 50 μg/ml penicillin, 50 μg/ml streptomycin, 100 μg/ml kanamycin, 400 μg/ml G418, and 0.3 μg/ml tetracycline) and incubated for 2 days at 37° C. in a 5% CO2, humidified atmosphere. The seeding media was removed, and cells were washed 3 times with PBS. Cells were then incubated with 200 μL assay medium (DMEM/F12+10% FBS+P/S/K) containing either (i) no compound, (ii) test compound, or (iii) control drugs at 10 μM. After an additional 5-day (HepAD38) or 13-day incubation (HepAD79, with renewal of the culture media at day 7), the cell supernatant was collected and stored at −70° C. until HBV DNA was quantified.
HBV DNA was extracted from supernatant using QiaAmp DNA blood Mini kit (Qiagen) and nucleic acids eluted in 200 μl Viral DNA was detected by quantitative PCR (Q-PCR). The TaqMan probe and primers were designed using the Primer Express software (Applied Biosystems) and cover highly conserved sequences complementary to the DNA sequences present in HBsAg. A total of 5 μl DNA was amplified using reagents and conditions as described by the manufacturer (Applied Biosystems). […]

[2] = system: HBV (3TC-resistant virus: rtV204) in HepAD79 cells; assay: microbe, parasite or virus in culture; type: cell-based; settings: for HepAD79 log10 inhibition at 10 μM: HBV DNA in supernatant; for activity against the mutant virus (in words): rtV204 mutant virus; for FI EC90 AD79/EC90 AD38: fold increase, EC90 HepAD79 over EC90 HepAD38
Description: as §1
HBV DNA was extracted from supernatant using QiaAmp DNA blood Mini kit (Qiagen) and nucleic acids eluted in 200 μl Viral DNA was detected by quantitative PCR (Q-PCR). The TaqMan probe and primers were designed using the Primer Express software (Applied Biosystems) and cover highly conserved sequences complementary to the DNA sequences present in HBsAg. A total of 5 μl DNA was amplified using reagents and conditions as described by the manufacturer (Applied Biosystems).
Subsequently, the time course of viral induction in HepAD79 cells over a 13-day incubation period was investigated.
Therefore, the DNA extracted from the cell supernatant was also amplified by Q-PCR for the presence of cellular DNA (the rRNA gene).

[3] = system: HepG2 cells (mitochondrial COXII DNA); settings: for effect on mitochondrial DNA levels (in words): HepG2, up to 100 μM
[4] = system: HepG2 cells; assay: Lactic acid production in HepG2 cells; type: cell-based, human; settings: HepG2, up to 100 μM, 14 days
Description: (§2) In addition, these compounds were also tested in the HepG2 cell line (14-day treatment, 100 μM) for their ability to reduce mitochondrial DNA levels (using a newly designed normalized Q-PCR protocol as described in Stuyver, L. J., et al. 2002, Antimicrob. Agents Chemother., 46:3854-3860) or lactic acid production.

[5] = system: HepG2 cells; assay: Cell growth of HepG2 cells during 14-day treatment; type: cell-based, human; settings: HepG2, up to 100 μM, 14 days
Description: as §2

[6] = HepAD38 cells, 5-day incubation
[7] = HepAD38 cells, 5-day incubation, concentration reducing viral load by 90%, unit printed in text only
[8] = HepAD79 cells, 13-day incubation
[9] = HepAD79 cells, 13-day incubation, read-out: HepAD79 EC90
[10] = Hepatitis B virus, 312 h, read-out: HepAD79 EC90, HepAD79 cells, 13-day incubation
[11] = HepG2, 14-day treatment, 100 μM

Row | SMILES | HepAD38 log10 inhibition at 10 μM [1, 6] | EC90 [1, 7] | HepAD79 log10 inhibition at 10 μM [2, 8] | EC90 [2, 9] | Average ΔCt ± s.d. MitCoxII ([3]; HepG2, 14-day treatment, 10 μM) | Average ΔCt ± s.d. rDNA ([3]; HepG2, 14-day treatment, 10 μM) | Average ΔΔCt ± s.d. MitCOXII-rDNA ([3]; HepG2, 14-day treatment, 10 μM) | Fold difference in COXII DNA levels normalized for rDNA (range) relative to control ([3]; HepG2, 14-day treatment, 10 μM) | Average ΔCt ± s.d. MitCoxII [3, 11] | Average ΔCt ± s.d. rDNA [3, 11] | Average ΔΔCt ± s.d. MitCOXII-rDNA [3, 11] | Fold difference in COXII DNA levels normalized for rDNA (range) relative to control [3, 11] | effect on mitochondrial DNA levels (in words) ([3]; 14 days) | effect on cell growth (in words) [5] | FI EC90 AD79/EC90 AD38 [2] | other results
1 | Nc1nc(=O)n(C2CSC(CO)O2)cc1F (single isomer, unassigned; (-)) [(−)-FTC, (−)-enantiomer of 2-hydroxymethyl-5-(5-fluorocytosin-1-yl)-1,3-oxathiolane] | 1.59 ± 0.14 log10 | 1160 ± 660 nM | 0.28 log10 | > 10000 nM |  |  |  |  |  |  |  |  |  |  |  | 
2 | Nc1ccn([C@@H]2CS[C@H](CO)O2)c(=O)n1 [3TC, (−)-enantiomer of 2-hydroxymethyl-5-(cytosin-1-yl)-1,3-oxathiolane] | 1.97 ± 0.28 log10 |  | 0.67 ± 0.03 log10 |  |  |  |  |  |  |  |  |  |  |  |  | EC90 ([1]; Hepatitis B virus, 120 h, HepAD38 cells, 5-day incubation, concentration reducing viral load by 90%): 50 nM; EC90 [2, 10]: > 10000 nM
3 | Nc1ncnc2c1ncn2CCOCP(=O)(O)O [Adefovir] | 0.72 ± 0.12 log10 |  | 0.91 ± 0.11 log10 |  |  |  |  |  |  |  |  |  |  |  |  | EC90 ([1]; Hepatitis B virus, HePAD38, 120 h): > 10000 nM; EC90 [2, 10]: > 10000 nM; EC90 ([2]; read-out: HepAD79 EC90, HepAD79 cells, 13-day incubation): ~10000 nM
4 | Nc1ccn([C@H]2O[C@@H](CO)C=C2F)c(=O)n1 [L-2′F-D4C] | 1.77 ± 0.13 log10 | 740 nM | 0.33 log10 | > 10000 nM | −0.36 ± 0.02 | −0.06 ± 0.27 | −0.30 ± 0.28 | 1.23 (1.02-1.50) | 0.33 ± 0.21 | 0.53 ± 0.60 | −0.20 ± 0.40 | 1.15 (0.87-1.52) |  |  |  | inhibition of wild type HBV (in words) [1]: potent inhibitors; activity against the mutant virus (in words) [2]: completely inactive
5 | Nc1nc(=O)n([C@H]2O[C@@H](CO)C=C2F)cc1F [L-2′F-D4FC] | 1.91 ± 0.13 log10 | 630 nM | 0.23 log10 | > 10000 nM | 0.05 ± 0.07 | −0.23 ± 0.20 | 0.28 ± 0.17 | 0.82 (0.73-0.92) | 0.83 ± 0.17 | 0.85 ± 0.51 | −0.02 ± 0.64 | 1.01 (0.65-1.58) |  |  |  | inhibition of wild type HBV (in words) [1]: potent inhibitors; activity against the mutant virus (in words) [2]: completely inactive
6 | Nc1ccn([C@@H]2C=C(F)[C@H](CO)O2)c(=O)n1 [L-3′F-D4C, β-L-3′-fluoro-2′,3′--didehydro-2′, 3′--dideoxycytadine] | 2.68 ± 0.44 log10 | 220 ± 150 nM | 1.65 ± 0.24 log10 | 2300 nM | 0.39 ± 0.15 | −0.11 ± 0.38 | 0.49 ± 0.51 | 0.71 (1.02-0.50) | 0.20 ± 0.20 | −0.28 ± 0.14 | 0.48 ± 0.13 | 0.72 (0.79-0.65) | no reductions in mitochondrial DNA levels | did not show any reduction in cell growth | 10.5 | EC90 ([1]; HepAD38 cells, 5-day incubation, concentration reducing viral load by 90%, unit printed in text only, listed as L-3F-D4C): 250 nM; Average ΔCt ± s.d. MitCoxII ([3]; HepG2, 14-day treatment, 1 μM): 0.13 ± 0.16; Average ΔCt ± s.d. rDNA ([3]; HepG2, 14-day treatment, 1 μM): 0.08 ± 0.25; Average ΔΔCt ± s.d. MitCOXII-rDNA ([3]; HepG2, 14-day treatment, 1 μM): 0.05 ± 0.26; Fold difference in COXII DNA levels normalized for rDNA (range) relative to control ([3]; HepG2, 14-day treatment, 1 μM): 0.96 (1.16-0.80); total lactic acid production (in words) [4]: no increase in total lactic acid production
7 | Nc1nc(=O)n([C@@H]2C=C(F)[C@H](CO)O2)cc1F [L-3′F-D4FC, β-L-3′-fluoro-2′,3′-didehydro-2′,3′-dideoxy-5-fluorocytidine] | 2.8 ± 0.09 log10 | 220 ± 140 nM | 1.56 ± 0.40 log10 | 3100 nM | 0.23 ± 0.13 | −0.10 ± 0.06 | 0.33 ± 0.10 | 0.80 (0.85-0.74) | −0.52 ± 0.28 | −0.94 ± 0.16 | 0.42 ± 0.13 | 0.75 (0.82-0.68) | no reductions in mitochondrial DNA levels | did not show any reduction in cell growth | 14.1 | EC90 ([1]; HepAD38 cells, 5-day incubation, concentration reducing viral load by 90%, unit printed in text only, listed as L-3F-D4FC): 250 nM; Average ΔCt ± s.d. MitCoxII ([3]; HepG2, 14-day treatment, 1 μM): 0.00 ± 0.13; Average ΔCt ± s.d. rDNA ([3]; HepG2, 14-day treatment, 1 μM): −0.46 ± 0.06; Average ΔΔCt ± s.d. MitCOXII-rDNA ([3]; HepG2, 14-day treatment, 1 μM): 0.35 ± 0.01; Fold difference in COXII DNA levels normalized for rDNA (range) relative to control ([3]; HepG2, 14-day treatment, 1 μM): 0.78 (0.79-0.78); total lactic acid production (in words) [4]: no increase in total lactic acid production
8 | Nc1nc(=O)n([C@@H]2CC[C@H](CO)O2)cc1F [L-FddC] | 2.03 log10 | 310 nM | 0.02 log10 | > 10000 nM |  |  |  |  |  |  |  |  |  |  |  | 
9 | Nc1ccn([C@@H]2C=C[C@H](CO)O2)c(=O)n1 [L-d4C] | 2.79 ± 0.08 log10 | 60 ± 20 nM | 1.54 ± 0.38 log10 | 960 nM | 2.72 ± 0.37 | 3.96 ± 0.87 | −1.24 ± 0.50 | 2.36 (1.67-3.35) | 6.82 ± 0.33 | 10.14 ± 0.77 | −3.32 ± 0.75 | 9.99 (5.92-16.85) | did not specifically affect the mitochondrial DNA levels | reduced the cell growth significantly | 16 | 
10 | Nc1ccn([C@H]2CC[C@@H](CO)O2)c(=O)n1 [ddC, 2′,3′-dideoxycytidine] |  |  |  |  | 7.70 ± 0.08 | 0.92 ± 0.52 |  |  |  |  |  |  |  |  |  | Average ΔΔCt ± s.d. MitCOXII-rDNA ([3]; human, 14 days, 10 μM): 6.78 ± 0.56; Fold difference in COXII DNA levels normalized for rDNA (range) relative to control ([3]; human, 14 days, 10 μM): 0.01 (0.01-0.01)
